Values of other authors as cited in US20120269871A1, “SOLID STATE FORMS OF RASAGILINE SALTS” (ACTAVIS GROUP PTC EHF, priority 2009, published 2012).

solubility in ethanol (solvent: ethanol): freely soluble
solubility in isopropanol (solvent: isopropanol): sparingly soluble
solubility in water (solvent: water): freely soluble
SMILES: C#CCN[C@@H]1CCc2ccccc21.CS(=O)(=O)O [Rasagiline mesylate]
